This note sets out measurements from US5593970A, “Heterocyclic anthracycline analogs” (priority 1994, dated 1997).

This series deals with DMS 273. The series can be described thus: NCI sulforhodamine B assay. It is filed as cell-based, human. (In general: In SRB staining, fixed cells bind dye roughly in proportion to their protein.)

On to `COC(=O)C1CC2=C(C(=O)c3c(cc4ccccc4c3O)C2=O)C(O[C@H]2C[C@H](NC(=O)C(F)(F)F)[C@H](O)[C@H](C)O2)O1` (mixture of isomers) [BCH-242, (1'S,1R,3S) and (1'S, 1S,3R)-Methyl[11-hydroxy-1-2',3',6'-trideoxy-3-trifluroacetamido-L-lyxohexopyranose)-5,12-dioxo-3,4,5,12-tetrahydroanthraceno[2,3-c]pyran-3-yl]formate], for which, for the setting “DMS 273, 2880 min”, the “Log10 LC50” value is -5.31 log molar. Further, where the note is “Homo sapiens, DMS-273, 48 h, read-out: Log10 LC50, DMS 273 (converted)”, the CC50 was 9.77 µM.
